Test results taken from patent US10570097B2, “Antimicrobial imidazolium compounds” (AGENCY FOR SCIENCE, TECHNOLOGY AND RESEARCH, priority 2014, dated 2020).

How the values were obtained:
[1] = tested on: S. aureus; assay: Minimum inhibitory concentration by microdilution assay; type: cell-based, Staphylococcus aureus (ATCC 6538); conditions: 37° C., 24 h
Description: (§1) Staphylococcus aureus (ATCC 6538, gram-positive), Escherichia coli (ATCC 25922, gram-negative), Pseudomonas aeruginosa (gram-negative), and Candida albicans (ATCC 10231, yeast) were used as representative microorganisms to challenge the antimicrobial functions of the imidazolium salts. All bacteria and yeast were stored frozen at −80° C., and were grown overnight at 37° C. in Tryptic Soy broth (TSB) prior to experiments. Yeast was grown overnight at 22° C. in Yeast Mold (YM) broth. Subsamples of these cultures were grown for 3 h further and diluted to give an optical density value of 0.07 at 600 nm, corresponding to 3×10^8 CFU mL^−1 (MacFarland's Standard).
(§2) The oligomer compounds were dissolved in PBS at a concentration of 1 mg mL^1 and the minimal inhibitory concentrations (MICs) were determined by microdilution assay. Typically, a 100 μL microbial solutions (containing 3×10^8 cells mL^−1) were added to 100 μL of PBS containing the test imidazolium salts (normally ranging from […] in serial two-fold dilutions) in each well of the 96-well microtiter plate. The plates were incubated at 37° C. for 24 h with shaking at 300 rpm, with monitoring at the 2, 4, 6, 8, and 24 h time points. […] Broth and PBS solution containing microbial cells alone were used as negative controls, and experiments were run in triplicates.

[2] = tested on: E. coli; assay: as above; type: cell-based, Escherichia coli (ATCC 25922); conditions: E. coli, 37° C., 24 h
Description: as §1, §2

[3] = tested on: P. aeruginosa; assay: as above; type: cell-based, Pseudomonas aeruginosa; conditions: 37° C., 24 h
Description: as §1, §2

[4] = tested on: C. Albicans; assay: as above; type: cell-based, Candida albicans (ATCC 10231); conditions: 24 h
Description: as §1, §2

[5] = tested on: 4 microbes (S. aureus, E. coli, P. aeruginosa, C. Albicans); assay: MIC over the 4 microbes tested (geometric mean); type: cell-based; conditions: geometric mean of the MICs of the 4 microbes
Description: Staphylococcus aureus (ATCC 6538, gram-positive), Escherichia coli (ATCC 25922, gram-negative), Pseudomonas aeruginosa (gram-negative), and Candida albicans (ATCC 10231, yeast) were used as representative microorganisms to challenge the antimicrobial functions of the imidazolium salts. All bacteria and yeast were stored frozen at −80° C., and were grown overnight at 37° C. in Tryptic Soy broth (TSB) prior to experiments. Yeast was grown overnight at 22° C. in Yeast Mold (YM) broth. […] Typically, a 100 μL microbial solutions (containing 3×10^8 cells mL^−1) were added to 100 μL of PBS containing the test imidazolium salts (normally ranging from […] in serial two-fold dilutions) in each well of the 96-well microtiter plate. The plates were incubated at 37° C. for 24 h with shaking at 300 rpm, with monitoring at the 2, 4, 6, 8, and 24 h time points. […] Broth and PBS solution containing microbial cells alone were used as negative controls, and experiments were run in triplicates. The selectivity of the materials was also further assessed, by calculating the selectivity indices (SI), a measure and a comparison of safety and efficacies of each oligomer compound. […] Herein, the more stringent control of HC10 value was chosen over the HC50 value often reported in literature.

[6] = tested on: rat red blood cells (RBCs); assay: Hemolysis; type: cell-based; conditions: lowest concentration that induces 10% or more hemolysis; rat RBCs, 1 h, 37° C.; maximum tested 100,000 ppm
Description: Before these materials can be used in systemic applications, selectivity of these materials for microbial cells over mammalian cells should also be considered. Such selectivity is often determined by observation of hemolysis. Hemolysis was performed in the following manner, fresh rat red blood cells (RBCs) were diluted with PBS buffer to give an RBC stock suspension (4 vol % blood cells). A 100 μL aliquot of RBC stock was added to a 96-well plate containing […] oligomer compound stock solutions of various concentrations (serial 2-fold dilution in PBS). After 1 h incubation at 37° C., The contents of each well was pipetted into a microcentrifuge tube and then centrifuged at 4000 rpm for 5 min. Hemolytic activity was determined as a function of hemoglobin release by measuring OD576 of […] of the supernatant. A control solution that contained only PBS was used as a reference for 0% hemolysis. 100% hemolysis was measured by adding 0.5% Triton-X to the RBCs. [formula] The selectivity of the materials was also further assessed, by calculating the selectivity indices (SI), a measure and a comparison of safety and efficacies of each oligomer compound. […] Herein, the more stringent control of HC10 value was chosen over the HC50 value often reported in literature.

[7] = tested on: S. aureus; assay: Minimum biocidal concentration / killing efficiency (24 h); type: cell-based, Staphylococcus aureus
Description: (§3) To determine the minimum bacteriocidal concentration, the microbes were inoculated and prepared according to the procedure for MIC determination. […] The bacterial samples were taken out of each well after the aforementioned period, and subjected to a series of 10-fold dilutions. 20 uL of the diluted sample was then streaked across an agar plate, before incubation of the plate at 37° C. for 24 h. Colony forming units (CFU) were counted after overnight incubation, and the results were calculated according to the formula: [formula]

[8] = tested on: E. coli; assay: as above; type: cell-based, Escherichia coli
Description: as §3

[9] = tested on: E. coli; assay: Time kill kinetics; type: cell-based, Escherichia coli; conditions: for % kill / Log reduction: E. coli, 4MIC
Description: Time kill studies of the soligome compounds against E. coli were also studied. The experimental setup for time kill kinetics was similar to the set up for MBC determination. The microbes were treated with oligomer compounds at 4MIC concentration, and samples were taken out of each well at 2 minutes. 500 μl of cell suspension was removed, rescued by a series of 10-fold dilutions with growth medium, and kept on ice until plating. For plating, 50 μl to 200 μl of the diluted samples was spread on growth medium agar plates and colonies were counted after overnight incubation at 37° C.

[10] = Critical micellar concentration (pyrene fluorescent probe); type: physicochemical; conditions: for sharp point of inflection indicating the critical micellar concentrations: FIG. 4, deionized water
Description: The CMC values of the oligomer compounds were determined in both deionised (DI) water and PBS, using a LS50B luminescence spectrometer (Perkin Elmer, United States) and employing pyrene as a fluorescent probe. A known weight of the oligomer compound was dissolved in either 2 mL of DI water or PBS in a 4 mL glass vial and serial dilutions were effected. 10 μL of pyrene stock solution in acetone (6.16×10^-5 M) was added to each vial containing 1 mL of a known concentration of the oligomer compound, and the acetone was then evaporated at room temperature. The solution was allowed to equilibrate overnight and the final concentration of pyrene in each vial was 6.16×10^-7 M. The excitation spectra of the solutions were scanned from 300 to 360 nm with an emission wavelength of 395 nm, and both the excitation and emission bandwidths were set at 2.5 nm. The intensity ratios ([…]/[…]) were plotted against polymer concentration. The CMC value was given by the intersection of the tangent to the curve at the inflection and the tangent of the points at low polymer concentrations.

[11] = Gelling properties in solvents (tube inversion test); type: physicochemical
Description: Gels were prepared by weighing the imidazolium oligomer compounds directly into 4 mL glass vials and subsequently adding a known weight or volume of the solvent. The vials containing both the imidazolium and the solvent were either vortexed or sonicated to ensure that the imidazolium was dissolved and dispersed thoroughly before being placed in a 4° C. fridge overnight. The tube inversion test method was used to examine gel formation in different solvents.

Row | SMILES | MIC S.A. [1] | MIC E. coli [2] | MIC P.A. [3] | MIC C.A. [4] | MIC GM [5] | HC10 [6] | % kill ([9]; two minutes) | Log reduction ([9]; two minutes) | sharp point of inflection indicating the critical micellar concentrations [10] | State in solvent ([11]; Acetone) | State in solvent ([11]; Acetonitrile) | Concentration to form gel ([11]; EtOH) | State in solvent ([11]; EtOH) | State in solvent ([11]; Ethylene glycol) | State in solvent ([11]; Glycerol) | Concentration to form gel ([11]; nBuOH) | State in solvent ([11]; nBuOH) | Concentration to form gel ([11]; nPrOH) | State in solvent ([11]; nPrOH) | also measured
1 | CCCCCC[n+]1ccn(Cc2ccc(C[n+]3ccn(Cc4ccc(C[n+]5ccn(Cc6ccccc6Cn6cc[n+](Cc7ccc(Cn8cc[n+](Cc9ccc(Cn%10cc[n+](CCCCCC)c%10)cc9)c8)cc7)c6)c5)cc4)c3)cc2)c1.[Br-].[Br-].[Cl-].[Cl-].[Cl-].[Cl-] [Compound 1] | 4 µg/mL | 8 µg/mL | 8 µg/mL | 16 µg/mL | 8 µg/mL | >100000 ppm | 99.8% | 2.85 | not observed | Insoluble | Insoluble | (11 wt %) | Gel | Solution | Solution | (9.2 wt %) | Gel | (7.8 wt %) | Gel | % killing ([7]; 0.5 MIC): 99.975%; Log reduction ([7]; 0.5 MIC): 3.69 ± 0.335; % killing ([7]; 2 MIC): >99.999%; Log reduction ([7]; 2 MIC): 7.28 ± 0.036; % killing ([7]; MIC): 99.999%; Log reduction ([7]; MIC): 5.35 ± 0.094; % killing ([8]; 0.5 MIC): 97.692%; Log reduction ([8]; 0.5 MIC): 1.48 ± 0.212; % killing ([8]; 2 MIC): >99.999%; Log reduction ([8]; 2 MIC): 8.40 ± 0.403; % killing ([8]; MIC): >99.999%; Log reduction ([8]; MIC): 7.53 ± 0.173
2 | CCCCCCCCCCCC[n+]1ccn(Cc2ccc(C[n+]3ccn(Cc4ccc(C[n+]5ccn(Cc6ccccc6Cn6cc[n+](Cc7ccc(Cn8cc[n+](Cc9ccc(Cn%10cc[n+](CCCCCCCCCCCC)c%10)cc9)c8)cc7)c6)c5)cc4)c3)cc2)c1.[Br-].[Br-].[Cl-].[Cl-].[Cl-].[Cl-] [Compound 4] | 4 µg/mL | 8 µg/mL | 16 µg/mL | 31 µg/mL | 11.22 µg/mL | 31 ppm | >99.9% | 3.69 |  | Insoluble | Insoluble | (9.0 wt %) | Gel | Solution | Solution | (5.8 wt %) | Gel | (7.2 wt %) | Gel | fast killing in words ([9]; E. coli time kill): instantaneous elimination; CMC in PBS ([10]; PBS buffer solution): 10.9 ppm; CMC in DI H2O ([10]; deionised water): 938.5 ppm; Gel formation ([11]; binary mixtures of water/ethanol and glycerol/ethanol): did not form a gel
3 | c1ccc(C[n+]2ccn(Cc3ccc(C[n+]4ccn(Cc5ccc(C[n+]6ccn(Cc7ccccc7Cn7cc[n+](Cc8ccc(Cn9cc[n+](Cc%10ccc(Cn%11cc[n+](Cc%12ccccc%12)c%11)cc%10)c9)cc8)c7)c6)cc5)c4)cc3)c2)cc1 [IBN-1, reference compound] | 3 µg/mL | 4 µg/mL | 31 µg/mL | 31 µg/mL | 10.36 µg/mL | >100000 ppm | 83.33% | 0.79 | not observed |  |  |  |  |  |  |  |  |  |  | killing within two minutes ([9]; E. coli (3×10^8 cells mL^−1), 32 ppm concentration of oligomer compounds, two minutes): 83%; Gel formation ([11]; any of the solvents): not able to form gels
